In PubChem BioAssay (NCI):
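In this assay, cells in 96-well plates receive the compound at five concentrations for 48 hours. Endpoints are linearly interpolated between the surrounding concentrations. TGI marks complete inhibition of growth.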

Experiments:
Test in all cases: inhibition of tumour cell growth, NCI panel, 48 h
NCI-H460 lung = test system: NCI-H460 lung
HL-60(TB) leukemia = test system: HL-60(TB) leukemia
LXFL 529 NSCLC = test system: LXFL 529 NSCLC
NCI-H226 lung = test system: NCI-H226 lung
M14 melanoma = test system: M14 melanoma
786-0 renal = test system: 786-0 renal
XF 498 CNS = test system: XF 498 CNS
SK-MEL-5 melanoma = test system: SK-MEL-5 melanoma
DMS 114 small cell lung = test system: DMS 114 small cell lung
SF-539 CNS = test system: SF-539 CNS
SW-620 colon = test system: SW-620 colon
UACC-257 melanoma = test system: UACC-257 melanoma
HCC-2998 colon = test system: HCC-2998 colon
TK-10 renal = test system: TK-10 renal
IGROV1 ovarian = test system: IGROV1 ovarian
HCT-15 colon = test system: HCT-15 colon
DMS 273 small cell lung = test system: DMS 273 small cell lung
SNB-75 CNS = test system: SNB-75 CNS
RXF 393 renal = test system: RXF 393 renal
U251 CNS = test system: U251 CNS
KM12 colon = test system: KM12 colon
HT29 colon = test system: HT29 colon
DLD-1 colon = test system: DLD-1 colon
MALME-3M melanoma = test system: MALME-3M melanoma
SNB-78 CNS = test system: SNB-78 CNS
ACHN renal = test system: ACHN renal
HOP-62 NSCLC = test system: HOP-62 NSCLC
EKVX NSCLC = test system: EKVX NSCLC
OVCAR-5 ovarian = test system: OVCAR-5 ovarian
UO-31 renal = test system: UO-31 renal
OVCAR-8 ovarian = test system: OVCAR-8 ovarian
UACC-62 melanoma = test system: UACC-62 melanoma
CAKI-1 renal = test system: CAKI-1 renal
SK-MEL-28 melanoma = test system: SK-MEL-28 melanoma
A549 NSCLC = test system: A549 NSCLC
SF-295 CNS = test system: SF-295 CNS
OVCAR-4 ovarian = test system: OVCAR-4 ovarian
CCRF-CEM leukemia = test system: CCRF-CEM leukemia
KM20L2 colon = test system: KM20L2 colon
HCT-116 colon = test system: HCT-116 colon
M19-MEL melanoma = test system: M19-MEL melanoma
SK-OV-3 ovarian = test system: SK-OV-3 ovarian
A498 renal = test system: A498 renal
NCI-H23 lung = test system: NCI-H23 lung
RPMI-8226 leukemia = test system: RPMI-8226 leukemia
SK-MEL-2 melanoma = test system: SK-MEL-2 melanoma
OVCAR-3 ovarian = test system: OVCAR-3 ovarian
MOLT-4 leukemia = test system: MOLT-4 leukemia
SN12C renal = test system: SN12C renal
COLO 205 colon = test system: COLO 205 colon
K-562 leukemia = test system: K-562 leukemia
SNB-19 CNS = test system: SNB-19 CNS
SF-268 CNS = test system: SF-268 CNS
LOX IMVI melanoma = test system: LOX IMVI melanoma

`CC(=O)O[C@H]1CC[C@@]2(C)C(=CC[C@@H]3C2CC[C@]2(C)Nc4c(cnn4-c4ccccc4)CC32)C1` (some centres not stated) was tested, and the TGI (NCI-H460 lung) was greater than 100 µM, the TGI (HL-60(TB) leukemia) was greater than 100 µM and the TGI (LXFL 529 NSCLC) was greater than 100 µM. The TGI (NCI-H226 lung) was greater than 100 µM, the TGI (M14 melanoma) was greater than 100 µM and the TGI (786-0 renal) was 36.6 µM. The TGI (XF 498 CNS) was greater than 100 µM, the TGI (SK-MEL-5 melanoma) was greater than 100 µM and the TGI (DMS 114 small cell lung) was greater than 100 µM. The TGI (SF-539 CNS) was 9.12 µM, the TGI (SW-620 colon) was greater than 100 µM and the TGI (UACC-257 melanoma) was greater than 100 µM. For the same molecule, the TGI (HCC-2998 colon) was 70.8 µM, the TGI (TK-10 renal) was greater than 100 µM and the TGI (IGROV1 ovarian) was greater than 100 µM. It also gave a TGI (HCT-15 colon) greater than 100 µM, a TGI (DMS 273 small cell lung) of 18.4 µM and a TGI (SNB-75 CNS) of 30.8 µM. For the same molecule, the TGI (RXF 393 renal) was 42.2 µM, the TGI (U251 CNS) was greater than 100 µM and the TGI (KM12 colon) was 69.8 µM. For the same molecule, the TGI (HT29 colon) was greater than 100 µM, the TGI (DLD-1 colon) was greater than 100 µM and the TGI (MALME-3M melanoma) was greater than 100 µM. For the same molecule, the TGI (SNB-78 CNS) was greater than 100 µM, the TGI (ACHN renal) was greater than 100 µM and the TGI (HOP-62 NSCLC) was 63.9 µM. It also gave a TGI (EKVX NSCLC) greater than 100 µM, a TGI (OVCAR-5 ovarian) greater than 100 µM and a TGI (UO-31 renal) of 84 µM. It also gave a TGI (OVCAR-8 ovarian) greater than 100 µM, a TGI (UACC-62 melanoma) greater than 100 µM and a TGI (CAKI-1 renal) greater than 100 µM. It also gave a TGI (SK-MEL-28 melanoma) greater than 100 µM, a TGI (A549 NSCLC) greater than 100 µM and a TGI (SF-295 CNS) of 8.52 µM. It also gave a TGI (OVCAR-4 ovarian) of 66.9 µM, a TGI (CCRF-CEM leukemia) greater than 100 µM and a TGI (KM20L2 colon) greater than 100 µM. The TGI (HCT-116 colon) was greater than 100 µM, the TGI (M19-MEL melanoma) was greater than 100 µM and the TGI (SK-OV-3 ovarian) was greater than 100 µM. For the same molecule, the TGI (A498 renal) was 51.9 µM, the TGI (NCI-H23 lung) was greater than 100 µM and the TGI (RPMI-8226 leukemia) was 6.62 µM. The TGI (SK-MEL-2 melanoma) was greater than 100 µM and the TGI (OVCAR-3 ovarian) was greater than 100 µM.

`CCc1cccc(C(C)CC)c1NC(=O)CC1C(=O)Nc2ccccc2S1(=O)=O` (configuration not stated) showed a TGI (NCI-H460 lung) greater than 100 µM, a TGI (LXFL 529 NSCLC) of 24.5 µM and a TGI (MOLT-4 leukemia) of 41.5 µM. It also gave a TGI (M14 melanoma) greater than 100 µM, a TGI (786-0 renal) of 33.6 µM and a TGI (XF 498 CNS) greater than 100 µM. For the same molecule, the TGI (SK-MEL-5 melanoma) was greater than 100 µM, the TGI (SN12C renal) was greater than 100 µM and the TGI (DMS 114 small cell lung) was 39.2 µM. The TGI (SF-539 CNS) was 52.1 µM, the TGI (SW-620 colon) was 28.7 µM and the TGI (UACC-257 melanoma) was greater than 100 µM. For the same molecule, the TGI (HCC-2998 colon) was 22.1 µM, the TGI (TK-10 renal) was 84.5 µM and the TGI (IGROV1 ovarian) was greater than 100 µM. The TGI (HCT-15 colon) was 48.7 µM, the TGI (DMS 273 small cell lung) was 71.3 µM and the TGI (SNB-75 CNS) was 94.6 µM. For the same molecule, the TGI (U251 CNS) was greater than 100 µM, the TGI (KM12 colon) was 40.5 µM and the TGI (HT29 colon) was 47.9 µM. For the same molecule, the TGI (DLD-1 colon) was 33.2 µM, the TGI (MALME-3M melanoma) was greater than 100 µM and the TGI (SNB-78 CNS) was 65.5 µM. It also gave a TGI (ACHN renal) greater than 100 µM, a TGI (HOP-62 NSCLC) greater than 100 µM and a TGI (COLO 205 colon) of 44.5 µM. The TGI (EKVX NSCLC) was 44.3 µM, the TGI (OVCAR-5 ovarian) was greater than 100 µM and the TGI (UO-31 renal) was 96.2 µM. It also gave a TGI (OVCAR-8 ovarian) of 15.9 µM, a TGI (UACC-62 melanoma) greater than 100 µM and a TGI (K-562 leukemia) of 28.5 µM. For the same molecule, the TGI (CAKI-1 renal) was 40.2 µM, the TGI (SK-MEL-28 melanoma) was greater than 100 µM and the TGI (A549 NSCLC) was 70 µM. It also gave a TGI (SF-295 CNS) greater than 100 µM, a TGI (OVCAR-4 ovarian) of 39.9 µM and a TGI (CCRF-CEM leukemia) of 30.5 µM. The TGI (SNB-19 CNS) was greater than 100 µM, the TGI (KM20L2 colon) was greater than 100 µM and the TGI (SF-268 CNS) was greater than 100 µM. It also gave a TGI (M19-MEL melanoma) greater than 100 µM, a TGI (SK-OV-3 ovarian) of 99.2 µM and a TGI (A498 renal) of 72.6 µM. The TGI (NCI-H23 lung) was 40.1 µM, the TGI (RPMI-8226 leukemia) was 43.3 µM and the TGI (SK-MEL-2 melanoma) was greater than 100 µM. For the same molecule, the TGI (LOX IMVI melanoma) was 39.9 µM and the TGI (OVCAR-3 ovarian) was 38.2 µM.
